Reference: ChEMBL document CHEMBL4627352, “New acrylamide-sulfisoxazole conjugates as dihydropteroate synthase inhibitors” (Bioorg Med Chem, 2020)
≈ marks a conversion by molar mass, not a printed value. Calls of active or inactive are those of the source. The calls are words filed in the database; no cut-off is given here.

Legend:
Klebsiella pneumoniae [1] = assay: Inhibition of DHPS in Klebsiella pneumoniae assessed as antibacterial activity by measuring inhibition zone at 5 mg/mL incubated for 24 hrs by disk diffusion method
[2] = test system: Staphylococcus epidermidis; assay: Inhibition of DHPS in Staphylococcus epidermidis assessed as antibacterial activity by measuring inhibition of bacterial growth incubated for 24 hrs by microbroth dilution method
[3] = test system: Syncephalastrum racemosum; assay: Inhibition of DHPS in Syncephalastrum racemosum assessed as antifungal activity by measuring inhibition zone at 5 mg/mL incubated for 48 hrs by disk diffusion method
Escherichia coli [4] = assay: Inhibition of DHPS in Escherichia coli assessed as antibacterial activity by measuring inhibition zone at 5 mg/mL incubated for 24 hrs by disk diffusion method
Streptococcus pneumoniae [5] = assay: Inhibition of DHPS in Streptococcus pneumoniae assessed as antibacterial activity by measuring inhibition zone at 5 mg/mL incubated for 24 hrs by disk diffusion method
Aspergillus fumigatus [6] = assay: Inhibition of DHPS in Aspergillus fumigatus assessed as antifungal activity by measuring inhibition zone at 5 mg/mL incubated for 48 hrs by disk diffusion method
Geotrichum candidum [7] = assay: Inhibition of DHPS in Geotrichum candidum assessed as antifungal activity by measuring inhibition zone at 5 mg/mL incubated for 48 hrs by disk diffusion method
[8] = test system: Escherichia coli ATCC 25922; assay: Inhibition of DHPS in Escherichia coli ATCC 25922 assessed as inhibition of bacterial growth incubated for 24 hrs in presence of folate precursor, pABA by microbroth dilution method
[9] = test system: Staphylococcus epidermidis; assay: Inhibition of DHPS in Staphylococcus epidermidis assessed as antibacterial activity by measuring inhibition zone at 5 mg/mL incubated for 24 hrs by disk diffusion method
Proteus vulgaris [10] = assay: Inhibition of DHPS in Proteus vulgaris assessed as antibacterial activity by measuring inhibition zone at 5 mg/mL incubated for 24 hrs by disk diffusion method
[11] = test system: Escherichia coli ATCC 25922; assay: Inhibition of DHPS in Escherichia coli ATCC 25922 assessed as inhibition of bacterial growth incubated for 24 hrs in presence of folate dependent metabolite, methionine by microbroth dilution method
Bacillus subtilis [12] = assay: Inhibition of DHPS in Bacillus subtilis assessed as antibacterial activity by measuring inhibition zone at 5 mg/mL incubated for 24 hrs by disk diffusion method
Geotrichum candidum [13] = assay: Inhibition of DHPS in Geotrichum candidum assessed as antifungal activity by measuring inhibition of fungal growth incubated for 48 hrs by microbroth dilution method
[14] = test system: Syncephalastrum racemosum; assay: Inhibition of DHPS in Syncephalastrum racemosum assessed as antifungal activity by measuring inhibition of fungal growth incubated for 48 hrs by microbroth dilution method
Aspergillus fumigatus [15] = assay: Inhibition of DHPS in Aspergillus fumigatus assessed as antifungal activity by measuring inhibition of fungal growth incubated for 48 hrs by microbroth dilution method
Bacillus subtilis [16] = assay: Inhibition of DHPS in Bacillus subtilis assessed as antibacterial activity by measuring inhibition of bacterial growth incubated for 24 hrs by microbroth dilution method
Proteus vulgaris [17] = assay: Inhibition of DHPS in Proteus vulgaris assessed as antibacterial activity by measuring inhibition of bacterial growth incubated for 24 hrs by microbroth dilution method
Escherichia coli [18] = assay: Inhibition of DHPS in Escherichia coli assessed as antibacterial activity by measuring inhibition of bacterial growth incubated for 24 hrs by microbroth dilution method
Klebsiella pneumoniae [19] = assay: Inhibition of DHPS in Klebsiella pneumoniae assessed as antibacterial activity by measuring inhibition of bacterial growth incubated for 24 hrs by microbroth dilution method
Streptococcus pneumoniae [20] = assay: Inhibition of DHPS in Streptococcus pneumoniae assessed as antibacterial activity by measuring inhibition of bacterial growth incubated for 24 hrs by microbroth dilution method

| Compound | inhibition zone (IZ) (Klebsiella pneumoniae [1]) | MIC [2] | inhibition zone (IZ) [3] | inhibition zone (IZ) (Escherichia coli [4]) | inhibition zone (IZ) (Streptococcus pneumoniae [5]) | inhibition zone (IZ) (Aspergillus fumigatus [6]) | inhibition zone (IZ) (Geotrichum candidum [7]) | inhibition [8] | inhibition zone (IZ) [9] | inhibition zone (IZ) (Proteus vulgaris [10]) | inhibition [11] | inhibition zone (IZ) (Bacillus subtilis [12]) | MIC (Geotrichum candidum [13]) | MIC [14] | MIC (Aspergillus fumigatus [15]) | MIC (Bacillus subtilis [16]) | MIC (Proteus vulgaris [17]) | MIC (Escherichia coli [18]) | MIC (Klebsiella pneumoniae [19]) | MIC (Streptococcus pneumoniae [20]) |
| --- | --- | --- | --- | --- | --- | --- | --- | --- | --- | --- | --- | --- | --- | --- | --- | --- | --- | --- | --- | --- |
| Cc1noc(NS(=O)(=O)c2ccc(NC(=O)c3c(N)n[nH]c3Nc3ccccc3)cc2)c1C | inactive | 15.6 µg/mL (≈ 33.4 µM) | inactive | inactive | inactive | inactive | inactive | inactive | 13.4 mm | inactive | inactive | 12.6 mm |  |  |  |  |  |  |  |  |
| C[C@@H]1[C@H](O)[C@@H](C)/C=C/C=C/C=C/C=C/C=C/C=C/C=C/[C@H](O[C@@H]2O[C@H](C)[C@@H](O)[C@H](N)[C@@H]2O)C[C@@H]2O[C@](O)(C[C@@H](O)C[C@@H](O)[C@H](O)CC[C@@H](O)C[C@@H](O)CC(=O)O[C@H]1C)C[C@H](O)[C@H]2C(=O)O |  |  | 19.7 mm |  |  | 23.7 mm | 28.7 mm |  |  |  |  |  | 0.007 µg/mL (≈ 0.00758 µM) | 7.81 µg/mL (≈ 8.45 µM) | 0.12 µg/mL (≈ 0.13 µM) |  |  |  |  |  |
| CCS/C(Nc1ccccc1)=C(\C#N)C(=O)Nc1ccc(S(=O)(=O)Nc2onc(C)c2C)cc1 | inactive |  | inactive | inactive | inactive | inactive | inactive | inactive | 10.1 mm | inactive | inactive | 11.2 mm |  |  |  |  |  |  |  |  |
| GENTAMICIN | 26.3 mm |  |  | 19.9 mm |  |  |  |  |  | 23.4 mm |  |  |  |  |  | 0.24 µg/mL | 0.24 µg/mL | 1.95 µg/mL | 0.03 µg/mL |  |
| CCS/C(NC12CC3CC(CC(C3)C1)C2)=C(\C#N)C(=O)Nc1ccc(S(=O)(=O)Nc2onc(C)c2C)cc1 | inactive |  | inactive | inactive | inactive | inactive | inactive | inactive | inactive | inactive | inactive | inactive |  |  |  |  |  |  |  |  |
| C=CCN/C(SC)=C(/C#N)C(=O)Nc1ccc(S(=O)(=O)Nc2onc(C)c2C)cc1 | inactive |  | 15.7 mm | inactive | inactive | 12.6 mm | 18.2 mm | inactive | inactive | inactive | inactive | inactive | 15.6 µg/mL (≈ 34.9 µM) | 62.5 µg/mL (≈ 140 µM) |  |  |  |  |  |  |
| Cc1noc(NS(=O)(=O)c2ccc(N)cc2)c1C | 18.2 mm | 7.81 µg/mL (≈ 29.2 µM) | 13.2 mm | 15.2 mm | 19.6 mm | 15.1 mm | 16.8 mm |  | 17.5 mm | inactive |  | 20.8 mm | 15.6 µg/mL (≈ 58.5 µM) | 125 µg/mL (≈ 468 µM) | 62.5 µg/mL (≈ 234 µM) | 0.98 µg/mL (≈ 3.67 µM) |  | 62.5 µg/mL (≈ 234 µM) | 7.81 µg/mL (≈ 29.2 µM) | 1.95 µg/mL (≈ 7.29 µM) |
| CC1(C)S[C@@H]2[C@H](NC(=O)[C@H](N)c3ccccc3)C(=O)N2[C@H]1C(=O)O |  | 0.06 µg/mL (≈ 0.172 µM) |  |  | 23.8 mm |  |  |  | 25.4 mm |  |  | 32.4 mm |  |  |  | 0.24 µg/mL (≈ 0.687 µM) |  |  |  | 0.12 µg/mL (≈ 0.343 µM) |
